{"source": "patent US9585955B2", "about": "(priority 2005, dated 2017)", "origin": "cited, not measured here", "conditions": "20° C. and 2 atm pressure", "data": [{"smiles": "[N-]=[N+]=O", "note": "[Nitrous oxide]", "values": [{"measurement": "volume of water in which one liter of the gas dissolves", "result": 1.5, "unit": "L"}]}]}
